Data: patent US20250025443A1, “COMPOUNDS AND METHODS FOR TREATING CORONA VIRUSES” (CLEAR CREEK BIO, INC., priority 2021, published 2025)

These compounds were tested against SARS-CoV-2 Papain-Like Protease (PLpro) (Severe acute respiratory syndrome coronavirus 2 (2019-nCoV) (SARS-CoV-2), UniProt P0DTD1) (assay: biochemical). Conditions: PLpro IC50, SARS-CoV-2 PLpro enzymatic fluorescence assay.
For `Cc1ccc(C2=CCNCC2)cc1C(=O)NC1(c2cccc3ccccc23)CC1` [Compound 399, 2-Methyl-N-(1-(naphthalen-1-yl)cyclopropyl)-5-(1,2,3,6-tetrahydropyridin-4-yl)benzamide], the IC50 was < 100 nM.

Same assay, conditions: SARS-CoV-2 PLpro enzymatic fluorescence assay; read-out: PLpro IC50
For `Cc1cc(Br)c(OCCN(C)C)cc1C(=O)NC1(c2cccc3ccccc23)CC1` [Compound 369, 4-Bromo-5-(2-(dimethylamino)ethoxy)-2-methyl-N-(1-(naphthalen-1-yl)cyclopropyl)benzamide], the IC50 was < 100 nM. Work on `Cc1ccc(OCCN(C)C)cc1C(=O)NC1(c2cccc3ccoc23)CC1` [Compound 370, N-(1-(Benzofuran-7-yl)cyclopropyl)-5-(2-(dimethylamino)ethoxy)-2-methylbenzamide] yielded an IC50 of 100 to 1000 nM. In the case of `Cc1ccc(OC[C@H]2CCCN2)cc1C(=O)NC1(c2cccc3ncccc23)CC1` [Compound 371, (R)-2-methyl-5-(pyrrolidin-2-ylmethoxy)-N-(1-(quinolin-5-yl)cyclopropyl)benzamide], the IC50 is reported as < 100 nM. `COC(=O)/C=C/C(=O)NNC(=O)CCc1ccccc1C(=O)NC1(c2cccc3ccccc23)CC1` [Compound 373, (E)-Methyl 4-(2-(3-(2-((1-(naphthalen-1-yl)cyclopropyl)carbamoyl)phenyl)propanoyl) hydrazinyl)-4-oxobut-2-enoate] was tested, and the IC50 was < 100 nM. In the case of `Cc1ccc(OCCN)cc1C(=O)NC1(c2cccc3ncccc23)CC1` [Compound 374, 5-(2-Aminoethoxy)-2-methyl-N-(1-(quinolin-5-yl)cyclopropyl)benzamide], the IC50 is reported as < 100 nM. In the case of `CNCCOc1ccc(C)c(C(=O)NC2(c3cccc4cnccc34)CC2)c1` [Compound 375, N-(1-(Isoquinolin-5-yl)cyclopropyl)-2-methyl-5-(2-(methylamino)ethoxy)benzamide], the IC50 is reported as < 100 nM. `Cc1ccc(OCC23CCCN2CCC3)cc1C(=O)NC1(c2cccc3ccccc23)CC1` [Compound 376, 5-((Hexahydro-1H-pyrrolizin-7a-yl)methoxy)-2-methyl-N-(1-(naphthalen-1-yl)cyclopropyl)benzamide] was tested, and the IC50 was < 100 nM. In the case of `CNCCOc1ccc(C)c(C(=O)NC2(c3cccc4cc(F)ccc34)CC2)c1` [Compound 377, N-(1-(6-Fluoronaphthalen-1-yl)cyclopropyl)-2-methyl-5-(2-(methylamino)ethoxy)benzamide], the IC50 is reported as < 100 nM. `Cc1ccc(CCN)cc1C(=O)NC1(c2cccc3ccccc23)CC1` [Compound 378, 5-(2-Aminoethyl)-2-methyl-N-(1-(naphthalen-1-yl)cyclopropyl)benzamide] was tested, and the IC50 was < 100 nM. In the case of `Cc1ccc(OC[C@@H]2CCCN2C)cc1C(=O)NC1(c2cccc3ncccc23)CC1` [Compound 379, (S)-2-Methyl-5-((1-methylpyrrolidin-2-yl)methoxy)-N-(1-(quinolin-5-yl)cyclopropyl)benzamide], the IC50 is reported as < 100 nM. For `Cc1ccc(OC[C@@H]2CCCN2)cc1C(=O)NC1(c2cccc3ncccc23)CC1` [Compound 380, (S)-2-Methyl-5-(pyrrolidin-2-ylmethoxy)-N-(1-(quinolin-5-yl)cyclopropyl)benzamide], the IC50 was < 100 nM. For `Cc1ccc(OC[C@@H]2CCN2)cc1C(=O)NC1(c2cccc3ncccc23)CC1` [Compound 381, (S)-5-(Azetidin-2-ylmethoxy)-2-methyl-N-(1-(quinolin-5-yl)cyclopropyl)benzamide], the IC50 was < 100 nM. `Cc1ccc(OC[C@H]2CCCN2C)cc1C(=O)NC1(c2cccc3ncccc23)CC1` [Compound 382, (R)-2-Methyl-5-((1-methylpyrrolidin-2-yl)methoxy)-N-(1-(quinolin-5-yl)cyclopropyl)benzamide] was tested, and the IC50 was < 100 nM. For `Cc1ccc(OC[C@H]2CCN2)cc1C(=O)NC1(c2cccc3ncccc23)CC1` [Compound 383, (R)-5-(Azetidin-2-ylmethoxy)-2-methyl-N-(1-(quinolin-5-yl)cyclopropyl)benzamide], the IC50 was < 100 nM. With `COc1cc(C2(NC(=O)c3cc(OCC4CCN4C)ccc3C)CC2)c2ccccc2c1` (centres unmarked) [Compound 384, N-(1-(3-methoxynaphthalen-1-yl)cyclopropyl)-2-methyl-5-((1-methylazetidin-2-yl)methoxy)benzamide] the IC50 was < 100 nM. For `CNCCOc1ccc(C)c(C(=O)NC2(c3cccc4ncccc34)CC2)c1` [Compound 385, 2-Methyl-5-(2-(methylamino)ethoxy)-N-(1-(quinolin-5-yl)cyclopropyl)benzamide], the IC50 was < 100 nM. In the case of `Cc1ccc(OCC2CCN2C)cc1C(=O)N[C@@H](c1cccc2ccccc12)C(F)(F)F` (stereo partly drawn) [Compound 386, 2-Methyl-5-((1-methylazetidin-2-yl)methoxy)-N-((S)-2,2,2-trifluoro-1-(naphthalen-1-yl)ethyl)benzamide], the IC50 is reported as < 100 nM. With `Cc1ccc(OCC2CCN2C)cc1C(=O)NC1(c2cccc3ccccc23)COC1` (centres unmarked) [Compound 387, 2-Methyl-5-((1-methylazetidin-2-yl)methoxy)-N-(3-(naphthalen-1-yl)oxetan-3-yl)benzamide] the IC50 was < 100 nM. For `Cc1ccc(OCCN(C)C)cc1C(=O)NC1(c2cccc3cccnc23)CC1` [Compound 388, 5-(2-(Dimethylamino)ethoxy)-2-methyl-N-(1-(quinolin-8-yl)cyclopropyl)benzamide], the IC50 was < 100 nM. In the case of `Cc1ccc(OC[C@@H]2CCN2C)cc1C(=O)NC1(c2cccc3cc(F)ccc23)CC1` [Compound 389, (S)-N-(1-(6-Fluoronaphthalen-1-yl)cyclopropyl)-2-methyl-5-((1-methylazetidin-2-yl)methoxy)benzamide], the IC50 is reported as < 100 nM. In the case of `Cc1ccc(OC[C@H]2CCN2C)cc1C(=O)NC1(c2cccc3ncccc23)CC1` [Compound 390, (R)-2-Methyl-5-((1-methylazetidin-2-yl)methoxy)-N-(1-(quinolin-5-yl)cyclopropyl)benzamide], the IC50 is reported as < 100 nM. In the case of `Cc1ccc(OC[C@@H]2CCN2C)cc1C(=O)NC1(c2cccc3ncccc23)CC1` [Compound 391, (S)-2-Methyl-5-((1-methylazetidin-2-yl)methoxy)-N-(1-(quinolin-5-yl)cyclopropyl)benzamide], the IC50 is reported as < 100 nM. For `Cc1ccc(OC[C@@H]2CCN2)cc1C(=O)NC1(c2cccc3cc(F)ccc23)CC1` [Compound 392, (S)-5-(Azetidin-2-ylmethoxy)-N-(1-(6-fluoronaphthalen-1-yl)cyclopropyl)-2-methylbenzamide], the IC50 was < 100 nM. In the case of `Cc1ccc(OCCN(C)C)cc1C(=O)NC1(c2cn(-c3ccccc3)c3ccccc23)CC1` [Compound 395, 5-(2-(Dimethylamino)ethoxy)-2-methyl-N-(1-(1-phenyl-1H-indol-3-yl)cyclopropyl)benzamide], the IC50 is reported as < 100 nM. `Cc1ccc(OCC2CCN2CC(F)(F)F)cc1C(=O)NC1(c2cccc3ccccc23)CC1` (centres unmarked) [Compound 396, 2-Methyl-N-(1-(naphthalen-1-yl)cyclopropyl)-5-((1-(2,2,2-trifluoroethyl)azetidin-2-yl)methoxy)benzamide] gave an IC50 of 1000 to 5000 nM. With `CCCC1COc2cc(C(=O)NC3(c4cccc5ccccc45)CC3)c(C)cc21` (centres unmarked) [Compound 397, 5-Methyl-N-(1-(naphthalen-1-yl)cyclopropyl)-3-propyl-2,3-dihydrobenzofuran-6-carboxamide] the IC50 was 100 to 1000 nM. With `Cc1ccc(C2=CCNC2)cc1C(=O)NC1(c2cccc3ccccc23)CC1` [Compound 398, 5-(2,5-Dihydro-1H-pyrrol-3-yl)-2-methyl-N-(1-(naphthalen-1-yl)cyclopropyl)benzamide] the IC50 was < 100 nM. With `COCC(N)COc1ccc(C)c(C(=O)NC2(c3cccc4ccccc34)CC2)c1` (centres unmarked) [Compound 400, 5-(2-Amino-3-methoxypropoxy)-2-methyl-N-(1-(naphthalen-1-yl)cyclopropyl)benzamide] the IC50 was < 100 nM.
